Laboratory results taken from US20110105323A1, “Calcium Salts of Phosphorous Acid for Increasing the Effect of Fungicides” (BASF SE, priority 2008, published 2011).
Read-outs that look alike come from different tables or passages of the source.

Assays:
Plasmopara viticola [1] = assay: Example 10: downy mildew on grapevines, greenhouse, protective spray (7 days); type: in vivo
Plasmopara viticola [2] = assay: Example 9: downy mildew on grapevines, translaminar action; type: in vivo
Plasmopara viticola [3] = assay: Example 7: downy mildew on grapevines, greenhouse, as example 6; type: in vivo
[4] = tested on: downy mildew on grapevines; assay: Example 12: downy mildew on grapevines, outdoor test with natural infections; type: in vivo
Plasmopara viticola [5] = assay: Example 8: downy mildew on grapevines, bar application pattern; type: in vivo
Phakopsora pachyrhizi = assay: Example 11: soybean rust on soybeans, greenhouse; type: in vivo
Plasmopara viticola [6] = assay: Example 6: downy mildew on grapevines, greenhouse, protective spray (1 day); type: in vivo
[7] = tested on: downy mildew on grapevines; assay: Example 13: downy mildew on grapevines, outdoor test with natural infections; type: in vivo
[8] = tested on: downy mildew on grapevines; assay: Example 14: downy mildew on grapevines, outdoor test with natural infections; type: in vivo
Phytophthora infestans [9] = conditions: in vivo
Phytophthora infestans [10] = conditions: in vivo; remark: listed apart in the source

[Ca+2].[O-]P([O-])O [Ca(H2PO3)2, calcium hydrogenphosphite]
Efficacy W (Plasmopara viticola [1]; in vivo): 9%
Efficacy W (Plasmopara viticola [2]; in vivo): 0%
Efficacy W (Plasmopara viticola [3]; in vivo): 3%
Efficacy W ([4]; in vivo): 18%
Efficacy W (Plasmopara viticola [5]; in vivo): 0%
Efficacy W (Phakopsora pachyrhizi; in vivo): 48%
Efficacy W (Plasmopara viticola [6]; in vivo): 3%
Efficacy W ([7]; in vivo): 21%
Efficacy W ([8]; in vivo): 24%

N#Cc1sc2c(=O)c3ccccc3c(=O)c=2sc1C#N [dithianon]
Efficacy W (Plasmopara viticola [3]; dithianon 10 ppm in spray liquor, grapevine leaves sprayed 1 day before inoculation): 62%
Efficacy W ([4]; dithianon 300 ppm, outdoors, natural infections, spray interval 14-16 days, scored 1 day after the 6th application): 85%
Efficacy W (Plasmopara viticola [5]; dithianon 10 ppm, bar application on lower half of upper leaf side 1 day before inoculation, scored on apical half of leaf underside): 6%
Efficacy W (Phytophthora infestans [9]): 31%
Efficacy W ([7]; dithianon 400 ppm, outdoors, natural infections, 7 application dates, spray interval 14-16 days): 48%
Efficacy W ([8]; dithianon 300 ppm, outdoors, natural infections, spray interval 9-11 days, scored 4 days after the 8th application): 56%

COC(=O)N(OC)c1ccccc1COc1ccn(-c2ccc(Cl)cc2)n1 [pyraclostrobin]
Efficacy W (Plasmopara viticola [6]; pyraclostrobin 0.5 ppm in spray liquor, Riesling leaves sprayed 1 day before inoculation): 92%

O=C(Nc1ccccc1-c1ccc(Cl)cc1)c1cccnc1Cl [boscalid]
Efficacy W (Phakopsora pachyrhizi; boscalid 20 ppm, soybean 'Monsoy' leaves sprayed 2 days before inoculation, scored after 10-12 days): 11%

CCCCCCCCc1c(CC)nc2ncnn2c1N [fungicide A, 5-ethyl-6-octyl-[1,2,4]triazolo[1,5-a]pyrimidin-7-ylamine]
Efficacy W (Plasmopara viticola [1]; fungicide A 100 ppm, grapevine leaves sprayed 7 days before inoculation): 85%
Efficacy W (Plasmopara viticola [2]; fungicide A 5 ppm, translaminar, applied to upper side of leaf 48 hours prior to inoculation): 1%
Efficacy W (Phytophthora infestans [10]): 39%
